Results: patent US9580413B2, “Substituted pyrrolidines as ROS tyrosine kinase inhibitors” (NIPPON SHINYAKU CO., LTD., priority 2012, dated 2017)
Structures can show the parent of a compound that is named as a salt.

Key:
[1] = target: T1, JAK2 tyrosine kinase (Homo sapiens, UniProt O60674); experiment: JAK2 tyrosine kinase inhibitory activity test (ELISA); assay type: biochemical, humans; settings: 25 μM ATP substrate solution, 30° C., one hour
T1 construct: purchased Carna Biosciences, Inc
Procedure: (§1) 1. Preparation of Test Substance:
(§2) A test substance was dissolved in dimethyl sulfoxide (DMSO) to 10 mM and further diluted with DMSO to concentrations of 100-fold of the concentrations to be measured (100, 10, 1, 0.1, and 0.01 μM). Furthermore, the resultant was diluted with an assay buffer to 20-fold, thereby preparing a solution as a test substance solution. A solution prepared by diluting DMSO with an assay buffer to 20-fold was used as a negative control. A buffer containing 15 mM Tris-Cl (pH 7.5), 0.01 (v/v) % Tween-20, and 1 mM dithiothreitol was used as the assay buffer.
(§3) 2. Measurement of ROS Tyrosine Kinase Activity and JAK2 Tyrosine Kinase Activity:
(§4) The activity was measured by adopting the ELISA method. […] Finally, an ROS kinase or a JAK2 kinase (derived from humans, Carna Biosciences, Inc.) (diluted with the assay buffer to 0.25 nM) was added to the plate at 20 μL per well, and the resulting mixture was stirred. A reaction was performed at 30° C. for one hour. After the plate was washed 4 times with a washing buffer (50 mM Tris-Cl (pH 7.5), 150 mM NaCl, and 0.02 (v/v) % Tween-20), a blocking buffer (0.1% bovine serum albumin, 50 mM Tris-Cl (pH 7.5), 150 mM NaCl, and 0.02 (v/v) % Tween-20) was added to the plate at 150 μL per well, and incubated at 30° C. for 30 minutes. The blocking buffer was then removed, and a horse radish peroxidase-labeled anti-phosphorylated tyrosine antibody (BD Biosciences, Inc.) (diluted with the blocking buffer to 10,000-fold) was added to the plate at 100 μL per well, and the plate was incubated at 30° C. for 30 minutes. After the plate was washed 4 times with the washing buffer, a 3,3′,5,5′-tetramethylbenzidine solution (Sigma-Aldrich Co., Ltd.) was added to the plate at 100 μL per well to develop the color for 10 minutes. The reaction was stopped by adding 0.1 M sulfuric acid at 100 μL per well. An absorbance at 450 nm was measured with a microplate reader (Model 3550, manufactured by BIO-RAD, Benchmark, manufactured by BIO-RAD, or iMARK, manufactured by BIO-RAD).
(§5) 3. Analysis of Measurement Results:
(§6) A non-linear regression analysis was performed for the measured absorbance with an SAS system (SAS Institute Inc.), and a concentration of each of the test substances of inhibiting the ROS tyrosine kinase activity or JAK2 tyrosine kinase activity at 50% (IC50) was calculated. The inhibitory activity (IC50, nM) of each of the test substances against the ROS tyrosine kinase or JAK2 tyrosine kinase is shown in Tables 6 to 8.

[2] = target: T2, FIG-ROS/BaF3 cell (Homo sapiens, UniProt P08922); experiment: Proliferation inhibitory activity test against FIG-ROS/BaF3 cell; assay type: cell-based; settings: 3 days incubation, cell counting kit; read-out: Proliferation inhibitory activity against FIG-ROS/BaF3 cell (IC50)
T2 construct: fused on or other part: Q9HD26 (Golgi-associated PDZ and coiled-coil motif-containing protein)
Procedure: A BaF3 cell which had been transformed by introducing the FIG-ROS fusion gene (derived from U118MG human glioma cell) (FIG-ROS/BaF3 Cell) was prepared on a culture medium, seeded on a 96-well plate in the number of 1×10^3/100 μL per well, and then allowed to stand in a CO2 incubator (at 37° C. and 5% CO2). As the culture medium, 10% FBS (fetal bovine serum)-incorporated RPMI-1640 was used.
2. Proliferation Inhibitory Activity Test:
A test substance was dissolved in dimethyl sulfoxide (DMSO) to 10 mM and further diluted with DMSO to 100-fold to prepare a 100 μM solution. This was diluted with a 1% DMSO-incorporated medium to concentrations of 10-fold of the concentration to be measured (10,000, 1,000, 100, 10, and 1 nM). Each of the medicine solutions was added at 11 μL per well and mixed. To a control having no medicine added thereto, a 1% DMSO-incorporated medium was added, and incubated in a CO2 incubator (at 37° C. and 5% CO2) for 3 days. After completion of the incubation, the number of live cells was counted using a cell counting kit. First of all, each cell counting kit solution was added at 5 μL per well and mixed, and incubated in a CO2 incubator (at 37° C. and 5% CO2) for 4 hours. An absorbance at 450 nm was measured with a microplate reader (Model 3550, manufactured by BIO-RAD, Benchmark, manufactured by BIO-RAD, or iMARK, manufactured by BIO-RAD) with a reference wavelength of 650 nm.
as §5
A non-linear regression analysis was performed for the measured absorbance with an SAS system (SAS Institute Inc.), and a concentration of each of the test substances of inhibiting the cell proliferation at 50% (IC50) was calculated. The proliferation inhibitory activity (IC50, nM) of each of the test substances against the FIG-ROS/BaF3 cell is shown in Table 9.

[3] = target: T3, ROS tyrosine kinase (Homo sapiens, UniProt P08922); experiment: ROS tyrosine kinase inhibitory activity test (ELISA); assay type: biochemical, humans; settings: 25 μM ATP substrate solution, 30° C., one hour
T3 construct: purchased Carna Biosciences, Inc
Procedure: as §1, §2, §3, §4, §5, §6

T1 sequence (O60674 whole entry): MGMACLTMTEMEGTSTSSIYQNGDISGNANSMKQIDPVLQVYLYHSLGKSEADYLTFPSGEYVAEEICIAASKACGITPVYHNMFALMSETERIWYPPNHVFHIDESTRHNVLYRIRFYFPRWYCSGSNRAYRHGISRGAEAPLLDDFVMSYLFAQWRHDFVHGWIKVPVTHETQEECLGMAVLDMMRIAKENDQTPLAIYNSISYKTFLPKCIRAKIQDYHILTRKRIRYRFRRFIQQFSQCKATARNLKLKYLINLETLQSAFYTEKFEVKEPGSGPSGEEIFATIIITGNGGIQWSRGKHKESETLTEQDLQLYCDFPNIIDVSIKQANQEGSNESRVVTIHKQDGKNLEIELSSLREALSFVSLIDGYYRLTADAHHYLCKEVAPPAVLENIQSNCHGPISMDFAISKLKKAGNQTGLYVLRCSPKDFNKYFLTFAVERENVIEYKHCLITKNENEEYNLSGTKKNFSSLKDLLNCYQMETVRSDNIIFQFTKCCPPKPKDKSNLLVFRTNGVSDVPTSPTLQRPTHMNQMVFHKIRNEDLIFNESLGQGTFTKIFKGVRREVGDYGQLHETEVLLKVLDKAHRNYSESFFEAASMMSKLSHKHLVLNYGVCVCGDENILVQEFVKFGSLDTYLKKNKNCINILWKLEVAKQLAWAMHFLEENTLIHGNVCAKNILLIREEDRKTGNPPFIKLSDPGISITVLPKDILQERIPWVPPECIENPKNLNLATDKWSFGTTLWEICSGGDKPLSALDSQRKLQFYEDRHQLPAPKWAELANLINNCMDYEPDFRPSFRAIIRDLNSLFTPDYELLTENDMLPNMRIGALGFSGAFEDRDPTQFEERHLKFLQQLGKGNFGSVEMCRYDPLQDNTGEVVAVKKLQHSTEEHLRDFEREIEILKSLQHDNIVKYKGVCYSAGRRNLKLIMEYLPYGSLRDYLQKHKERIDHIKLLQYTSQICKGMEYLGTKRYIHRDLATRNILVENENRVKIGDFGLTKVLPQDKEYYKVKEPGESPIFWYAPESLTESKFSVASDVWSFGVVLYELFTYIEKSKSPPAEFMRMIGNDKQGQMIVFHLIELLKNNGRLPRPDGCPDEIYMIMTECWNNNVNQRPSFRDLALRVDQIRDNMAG
T2 sequence (P08922 whole entry, stated change not applied, the tested form may be a part): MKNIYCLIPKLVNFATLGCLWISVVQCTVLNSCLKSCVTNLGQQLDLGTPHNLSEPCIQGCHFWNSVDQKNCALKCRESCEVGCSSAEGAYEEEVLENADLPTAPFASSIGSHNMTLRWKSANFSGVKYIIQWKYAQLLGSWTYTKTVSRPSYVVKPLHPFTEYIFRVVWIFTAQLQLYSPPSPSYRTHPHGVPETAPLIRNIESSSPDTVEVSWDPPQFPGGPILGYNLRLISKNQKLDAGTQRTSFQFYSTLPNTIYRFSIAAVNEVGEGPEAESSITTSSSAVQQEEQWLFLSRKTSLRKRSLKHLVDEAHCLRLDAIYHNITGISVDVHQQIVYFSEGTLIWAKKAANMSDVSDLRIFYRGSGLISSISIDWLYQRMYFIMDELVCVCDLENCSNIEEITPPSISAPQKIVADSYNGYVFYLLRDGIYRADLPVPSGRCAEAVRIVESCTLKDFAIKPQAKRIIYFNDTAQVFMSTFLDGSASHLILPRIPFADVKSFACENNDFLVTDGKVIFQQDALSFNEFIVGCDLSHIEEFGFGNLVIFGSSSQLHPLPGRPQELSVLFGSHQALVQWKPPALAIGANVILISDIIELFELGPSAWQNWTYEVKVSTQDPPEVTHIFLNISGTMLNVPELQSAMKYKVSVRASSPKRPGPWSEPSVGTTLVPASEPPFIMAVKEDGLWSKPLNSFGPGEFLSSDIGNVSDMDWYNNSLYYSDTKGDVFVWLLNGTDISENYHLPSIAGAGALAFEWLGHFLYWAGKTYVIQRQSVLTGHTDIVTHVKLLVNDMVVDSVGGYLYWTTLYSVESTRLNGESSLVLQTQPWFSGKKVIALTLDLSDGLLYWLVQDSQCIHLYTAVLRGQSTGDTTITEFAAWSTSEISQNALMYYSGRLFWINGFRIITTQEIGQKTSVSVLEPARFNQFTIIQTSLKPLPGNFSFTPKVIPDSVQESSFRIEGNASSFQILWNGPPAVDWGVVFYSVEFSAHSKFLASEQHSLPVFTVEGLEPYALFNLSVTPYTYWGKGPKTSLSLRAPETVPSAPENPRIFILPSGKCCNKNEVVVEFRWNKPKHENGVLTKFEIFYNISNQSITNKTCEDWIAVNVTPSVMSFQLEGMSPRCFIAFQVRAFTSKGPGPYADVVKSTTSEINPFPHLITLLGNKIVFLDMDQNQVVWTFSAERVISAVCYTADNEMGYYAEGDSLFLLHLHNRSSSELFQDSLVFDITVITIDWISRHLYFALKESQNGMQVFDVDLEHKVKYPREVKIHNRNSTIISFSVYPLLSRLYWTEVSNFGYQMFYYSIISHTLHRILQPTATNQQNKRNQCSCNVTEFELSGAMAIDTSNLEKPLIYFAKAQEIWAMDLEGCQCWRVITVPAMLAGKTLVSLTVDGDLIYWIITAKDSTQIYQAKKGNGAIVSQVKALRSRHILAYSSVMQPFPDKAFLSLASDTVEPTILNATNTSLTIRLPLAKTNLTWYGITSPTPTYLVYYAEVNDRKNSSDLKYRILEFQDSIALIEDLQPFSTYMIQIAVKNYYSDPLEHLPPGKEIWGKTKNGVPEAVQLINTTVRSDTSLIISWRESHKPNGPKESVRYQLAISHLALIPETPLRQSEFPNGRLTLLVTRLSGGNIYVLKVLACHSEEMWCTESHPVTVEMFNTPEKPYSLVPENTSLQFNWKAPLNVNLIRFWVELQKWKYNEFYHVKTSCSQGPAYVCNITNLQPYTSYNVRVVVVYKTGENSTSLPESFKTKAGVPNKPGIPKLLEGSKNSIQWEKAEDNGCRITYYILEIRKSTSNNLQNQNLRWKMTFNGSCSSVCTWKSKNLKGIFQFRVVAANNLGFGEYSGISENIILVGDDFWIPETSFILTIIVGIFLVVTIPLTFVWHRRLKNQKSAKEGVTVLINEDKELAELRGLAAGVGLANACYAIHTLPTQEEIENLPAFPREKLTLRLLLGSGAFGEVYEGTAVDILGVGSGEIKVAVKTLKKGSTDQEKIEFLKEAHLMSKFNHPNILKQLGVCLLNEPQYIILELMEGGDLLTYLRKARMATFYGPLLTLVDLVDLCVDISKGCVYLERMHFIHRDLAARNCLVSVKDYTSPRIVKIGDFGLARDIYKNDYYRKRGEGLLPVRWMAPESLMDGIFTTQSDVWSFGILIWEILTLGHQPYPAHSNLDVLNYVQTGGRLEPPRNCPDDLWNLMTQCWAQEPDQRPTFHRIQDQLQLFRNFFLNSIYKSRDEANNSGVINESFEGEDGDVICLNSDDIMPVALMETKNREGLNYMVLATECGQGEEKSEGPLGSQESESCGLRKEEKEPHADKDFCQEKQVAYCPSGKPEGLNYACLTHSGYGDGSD

Structure (SMILES) | IC50 [1] | GI50 [2] | IC50 [3]
COc1c(Nc2ncc(C#N)s2)nc(N2CCCC2c2ccc(C)cc2)nc1-c1ccc(C(N)=O)cc1 (stereo not shown) [Example 4, 4-{6-[(5-Cyano-1,3-thiazol-2-yl)amino]-5-methoxy-2-[2-(4-methylphenyl)pyrrolidin-1-yl]pyrimidin-4-yl}benzamide] | > 1000 nM | 2.6 nM | 35 nM
COc1c(C)nc(N2CCC[C@H]2c2ccc(C)cc2)nc1Nc1ncc(C#N)s1 [Example 9, 2-({5-Methoxy-6-methyl-2-[(2S)-2-(4-methylphenyl)pyrrolidin-1-yl]pyrimidin-4-yl}amino)-1,3-thiazole-5-carbonitrile maleate] | 500 nM | 2.1 nM | 0.6 nM
COc1c(Nc2ncc(C#N)s2)nc(N2CCCC2c2ccc(C)cc2)nc1-c1cnco1 (stereo not shown) [Example 11, 2-({5-Methoxy-2-[2-(4-methylphenyl)pyrrolidin-1-yl]-6-(1,3-oxazol-5-yl)pyrimidin-4-yl}amino)-1,3-thiazole-5-carbonitrile] | > 1000 nM | 2.2 nM | 2.7 nM
Cc1ccc(C2CCCN2c2nc(Nc3ncc(C#N)s3)cc(C(=O)N[C@H](C)CO)n2)cc1 (stereo partly drawn) [Example 12, 6-[(5-Cyano-1,3-thiazol-2-yl)amino]-N-[(2R)-1-hydroxypropan-2-yl]-2-[2-(4-methylphenyl)pyrrolidin-1-yl]pyrimidine-4-carboxamide] | 540 nM | 24 nM | 21 nM
COc1c(Nc2ncc(C#N)s2)nc(N2CCCC2c2ccc(C)cc2)nc1-c1ccc(S(C)(=O)=O)cc1 (stereo not shown) [Example 13, 2-({5-Methoxy-2-[2-(4-methylphenyl)pyrrolidin-1-yl]-6-[4-(methylsulfonyl)phenyl]pyrimidin-4-yl}amino)-1,3-thiazole-5-carbonitrile] | ≥ 1000 nM | 3.5 nM | 44 nM
COc1ccc(-c2nc(N3CCCC3c3ccc(C)cc3)nc(Nc3ncc(C#N)s3)c2C)cn1 (stereo not shown) [Example 15, 2-({6-(6-Methoxypyridin-3-yl)-5-methyl-2-[2-(4-methylphenyl)pyrrolidin-1-yl]pyrimidin-4-yl}amino)-1,3-thiazole-5-carbonitrile] | > 1000 nM | 20 nM | 16 nM
N#Cc1cnc(Nc2nc(N3CCCC3c3ccc(F)cc3)cnc2-c2ccncc2)s1 (stereo not shown) [Example 26, 2-({6-[2-(4-Fluorophenyl)pyrrolidin-1-yl]-3-(pyridin-4-yl)pyrazin-2-yl}amino)-1,3-thiazole-5-carbonitrile] | > 1000 nM | 10 nM | 12 nM
Cc1ccc(C2CCCN2c2cc(C(F)(F)F)cc(Nc3ncc(C#N)s3)n2)cc1 (stereo not shown) [Example 27, 2-({6-[2-(4-Methylphenyl)pyrrolidin-1-yl]-4-(trifluoromethyl)pyridin-2-yl}amino)-1,3-thiazole-5-carbonitrile] | > 1000 nM | 27 nM | 65 nM
Cc1ccccc1C1CCCN1c1cncc(Nc2ncc(C#N)s2)n1 (stereo not shown) [Example 47, 2-({6-[2-(2-Methylphenyl)pyrrolidin-1-yl]pyrazin-2-yl}amino)-1,3-thiazole-5-carbonitrile] | 280 nM |  | 17 nM
COc1c(Nc2ncc(C#N)s2)nc(N2CCCC2c2ccc(C)cc2)nc1-c1cccnc1F (stereo not shown) [Example 49, 2-({6-(2-Fluoropyridin-3-yl)-5-methoxy-2-[2-(4-methylphenyl)pyrrolidin-1-yl]pyrimidin-4-yl}amino)-1,3-thiazole-5-carbonitrile] | > 1000 nM |  | 52 nM
Cc1cc(-c2ncc(N3CCCC3c3ccc(F)cc3)nc2Nc2ncc(C#N)s2)ccn1 (stereo not shown) [Example 53, 2-({6-[2-(4-Fluorophenyl)pyrrolidin-1-yl]-3-(2-methylpyridin-4-yl)pyrazin-2-yl}amino)-1,3-thiazole-5-carbonitrile] | > 1000 nM |  | 67 nM
Cc1ccc([C@@H]2CCCN2c2cc(C(N)=O)c(C3CC3)c(Nc3ncc(C#N)s3)n2)cc1 [Example 66, 2-[(5-Cyano-1,3-thiazol-2-yl)amino]-3-cyclopropyl-6-[(2S)-2-(4-methylphenyl)pyrrolidin-1-yl]pyridine-4-carboxamide] | 910 nM |  | 0.84 nM
Cc1ccc(C2CCCN2c2nc3c(c(Nc4ncc(C#N)s4)n2)CN(S(C)(=O)=O)CC3)cc1 (stereo not shown) [Example 72, 2-({2-[2-(4-Methylphenyl)pyrrolidin-1-yl]-6-(methylsulfonyl)-5,6,7,8-tetrahydropyrido[4,3-d]pyrimidin-4-yl}amino)-1,3-thiazole-5-carbonitrile] | > 1000 nM |  | 97 nM

Second part, the compound after the results:

IC50 [1] | GI50 [2] | IC50 [3] | Structure (SMILES)
76 nM | 2.2 nM | 1.6 nM | Cc1ccc([C@@H]2CCCN2c2cncc(Nc3ncc(C#N)s3)n2)cc1 [Example 1, 2-({6-[(2S)-2-(4-Methylphenyl)pyrrolidin-1-yl]pyrazin-2-yl}amino)-1,3-thiazole-5-carbonitrile hydrochloride]
92 nM | 23 nM | 7.1 nM | COC(=O)c1cc(Nc2ncc(C#N)s2)nc(N2CCCC2c2ccc(C)cc2)n1 (stereo not shown) [Example 6, Methyl 6-[(5-cyano-1,3-thiazol-2-yl)amino]-2-[2-(4-methylphenyl)pyrrolidin-1-yl]pyrimidine-4-carboxylate]
37 nM | 83 nM | 0.6 nM | Cc1ccc(C2CCCN2c2nc(Nc3ncc(C#N)s3)cc(C(=O)O)n2)cc1 (stereo not shown) [Example 7, 6-[(5-Cyano-1,3-thiazol-2-yl)amino]-2-[2-(4-methylphenyl)pyrrolidin-1-yl]pyrimidine-4-carboxylic acid]
220 nM | 2.9 nM | 2.6 nM | COc1cnc(N2CCCC2c2ccc(C)cc2)nc1Nc1ncc(C#N)s1 (stereo not shown) [Example 19, 2-({5-Methoxy-2-[2-(4-methylphenyl)pyrrolidin-1-yl]pyrimidin-4-yl}amino)-1,3-thiazole-5-carbonitrile]
280 nM |  | 6.4 nM | Cc1cccc(C2CCCN2c2cncc(Nc3ncc(C#N)s3)n2)c1 (stereo not shown) [Example 46, 2-({6-[2-(3-Methylphenyl)pyrrolidin-1-yl]pyrazin-2-yl}amino)-1,3-thiazole-5-carbonitrile]
170 nM |  | 1.8 nM | Cc1ccc(C2CCCN2c2nc(C)c(C)c(Nc3ncc(C#N)s3)n2)cc1 (stereo not shown) [Example 52, 2-({5,6-Dimethyl-2-[2-(4-methylphenyl)pyrrolidin-1-yl]pyrimidin-4-yl}amino)-1,3-thiazole-5-carbonitrile]
240 nM |  | 2.2 nM | COCCn1cc(-c2nc(N3CCC[C@H]3c3ccc(C)cc3)nc(Nc3ncc(C#N)s3)c2OC)cn1 [Example 58, 2-({5-Methoxy-6-[1-(2-methoxyethyl)-1H-pyrazol-4-yl]-2-[(2S)-2-(4-methylphenyl)pyrrolidin-1-yl]pyrimidin-4-yl}amino)-1,3-thiazole-5-carbonitrile]
